# Test results taken from patent US4956355A, “Agents for the arrest and therapy of retroviral infections” (Colthurst Limited, priority 1987, dated 1990).
# Legend:
# HXB cell line = experiment: Killing of HXB cells; type: cell-based, human; conditions: 10^-4 molar
# Protocol: (§1) 7. Analysis of nonspecific toxicity to the target cells with Compounds A and B. The VB, H9 and HXB cell lines were exposed to different concentrations of Compounds A and B as were normal human macrophages for the length of time the drug was in contact with each cell line as described in the above assays. Cell numbers were counted, and live versus dead were determined by Trypan blue exclusion assays. These tests were required to determine a therapeutic index between nonspecific toxic effects on the described cells, compared with potential effective antiviral effects in vitro (Example 6).
# [1] = system: HIV in activated peripheral blood lymphocytes; experiment: Inhibition of HIV mediated cytopathic effects / p24 antigen production in activated peripheral blood lymphocytes; type: cell-based; conditions: for p24 antigen production: activated PBL, about 7 days after infection, FIG. 2
# Protocol: (§2) 1. […] All three viral strains were grown in the Tissue Culture Laboratory of the AIDS Activity Division of San Francisco General Hospital where titers of […] infectious units per ml were routinely achieved.
# (§3) 4. HIV soluble p24 antigen detection: Soluble p24 antigens were measured with the Abbott HIV antigen detection system.
# (b) Although the VB T lymphoma cell line behaves in a similar manner to peripheral blood CD4 positive T lymphocytes in regard to HIV induced cytopathic effects, the above described experiments were performed on phytohemagglutinin (PHA) activated lymphocytes to determine whether lymphocytes are more or less sensitive to Compounds A and B than is the VB cell line. In this assay system, at the time that multinucleated giant cells appeared within infected lymphocyte cultures, the supernatants were analyzed for the presence of HIV p24 antigens and were titered on indicator VB lymphoma cells to determine the titer of infectious virus present at each point.
# To test whether the effects of compounds A and B on acute VB T lymphoma infection would be mimicked by activated peripheral blood lymphocytes (PBC), HIV at a multiplicity of infection of one was added to lymphocytes that had been activated for 48 hours with 2 μg per ml of PHA. After the initial infection for one hour, the activated lymphocytes were washed and resuspended for the one week of culture. Multinucleated giant cells began to form approximately 7 days after the initial infection, at which time the culture supernatants were harvested and tested for the presence of HIV p24 antigens. The accumulation of HIV p24 antigens in the supernatant is representative of production of HIV from infected cells.
# HIV in HXB/H9 cell line = experiment: Antiviral testing of chronically HIV infected cell line HXB; type: cell-based; conditions: other than killing with compound B at 10^-4 molar
# Protocol: as §2
# 2. Source of cells: The VB cell line used in Example 1 is a T lymphoma cell line that is highly susceptible to infection with HIV, and expresses high levels of cell surface CD4 molecules. This cell line forms syncytia within two days after infection with all strains of HIV tested to date. […] This is used to quantitate infection in the absence of syncytial formation, infection being quantitated by immunofluorescence assays. The HXB/H9 cell line (Example 6) is an H9 cell population that chronically produces the HTLV-IIIB strain of HIV and is utilised in experiments testing antiviral effects on chronically infected cell lines. […] Crowe et al. supra have devised an assay system that allows quantitation of HIV infection, and inhibition of infection using immunocytofluorographic analysis. In order to quantitate HIV infection in macrophages, they grow macrophages in Teflon (Trade Mark) culture vessels which maintain macrophages in suspension in vitro culture for up to six months. Cell surface and cytoplasmic immunofluorescence staining is then performed to quantitate antigens in macrophages by flow cytometry. […]
# [2] = system: HIV in chronically infected human macrophages; experiment: Antiviral testing of chronically HIV infected macrophages; type: cell-based
# Source text: (§4) 2. Source of cells: The VB cell line used in Example 1 is a T lymphoma cell line that is highly susceptible to infection with HIV, and expresses high levels of cell surface CD4 molecules. This cell line forms syncytia within two days after infection with all strains of HIV tested to date. […] This is used to quantitate infection in the absence of syncytial formation, infection being quantitated by immunofluorescence assays. The HXB/H9 cell line (Example 6) is an H9 cell population that chronically produces the HTLV-IIIB strain of HIV and is utilised in experiments testing antiviral effects on chronically infected cell lines. Human macrophages were prepared from peripheral blood mononuclear cells either obtained from the blood bank as a buffy coat, or as a leukophoresis preparation. Crowe et al. supra have devised an assay system that allows quantitation of HIV infection, and inhibition of infection using immunocytofluorographic analysis. In order to quantitate HIV infection in macrophages, they grow macrophages in Teflon (Trade Mark) culture vessels which maintain macrophages in suspension in vitro culture for up to six months. Cell surface and cytoplasmic immunofluorescence staining is then performed to quantitate antigens in macrophages by flow cytometry.
# (§5) 3. Flow cytometry: An Ortho Cytofluorgraf II-S (Trade Mark) that has a biohazard containment flow cell was used for analysis of HIV infected samples. HIV p24 antigens were detected utilizing a mouse monoclonal anti-p24 (du Pont), and mouse antibodies were identified utilizing an FITC conjugated goat anti-mouse IgG.
# 6. Analysis of chronically infected cells: To determine whether compounds A and B are effective at inhibiting HIV expression in macrophages and chronically infected T cells, the following experiments were performed. The chronically infected T cell line, HXB/H9 was exposed to various concentrations of drug for four days in vitro. At four days, the HXB cells were assayed for the presence of p24 intracytoplasmically, and supernatants were assayed for the presence of infectious virus as described above.
# Because macrophages can be infected and produce HIV for very long periods of time without substantial loss of viability, chronically infected cells were tested, specifically a population that was between 30 and 50% HIV antigen positive, for inhibition of cytoplasmic HIV p24 antigen production. FIG. 5 indicates the results of three separate experiments carried out.
# [3] = system: peripheral blood lymphocytes; experiment: Nonspecific toxicity to peripheral blood lymphocytes; type: cell-based, human
# normal human macrophages = experiment: Nonspecific toxicity to normal human macrophages; type: cell-based
# Protocol: as §1
# [4] = system: HIV in VB T lymphoma cell line; experiment: Inhibition of HIV mediated cytopathic effects (multinucleated giant/syncytial cell formation) in acutely infected VB tumor cell line; type: cell-based
# Protocol: as §2, §4
# 5. Inhibition of acute infection: Several assays were utilized to test for inhibition of acute infection; these included:
# (a) Inhibition of multinucleated giant cell formation in acutely infected VB cells infected at a multiplicity of infection of 1, and scored two days after infection in the presence or absence of varying concentrations of drug, for the formation of multinucleated giant cells. (free virus is washed out after a one hour incubation pretreatment at room temperature). […] Supernatants were also isolated and the level of HIV p24 antigen determined. Infectious virus was measured in treated cultures by performing a syncytial assay as described above.
# (§6) Compounds A and B were tested for inhibition of T lymphoma cell cytopathic effect at various drug concentrations after acute infection with HIV for 48 hours. […] It is possible that the diminished effects noted in later experiments could have been secondary to drug stability problems.
# tumor cell lines = experiment: Toxicity to tumor cell lines, Examples 1 to 7; type: cell-based, human; conditions: 10^-4 molar; all experiments of Examples 1 to 7
# Protocol: as §1
# HIV in human macrophages [5] = experiment: Inhibition of HIV production in normal human macrophages (supernatant p24, acute infection); type: cell-based
# Protocol: as §2, §4, §3
# (c) To test whether Compounds A and B were effective at blocking acute infection of macrophages, macrophages from Teflon cultures were exposed at a multiplicity of 1 to HIV-DV in the presence or absence of various concentrations of drug (Examples 3-5). Normally, HIV expression peaks in human macrophages at approximately ten days after initial infection. Therefore, after infection for one hour at room temperature, followed by a wash and resuspension of the macrophages in various drug concentrations, macrophages were stained for the presence of p24 antigen at day ten. Culture supernatants from these macrophages were assayed for the presence of soluble p24, and infectious virus as described above.
# To test whether compounds A and B might be active at inhibiting infection of normal human macrophages, a spectrum of drug concentrations were tested for inhibition of acute infection, and inhibition of HIV expression in chronically infected macrophages. […] After acute infection (one hour) cells were incubated in various concentrations of compounds A and B, and 7 days after the initial infection supernatants were harvested for p24 antigen quantitation. […]
# HIV in human macrophages [6] = experiment: Inhibition of cytoplasmic HIV p24 antigen in HIV-infected macrophages; type: cell-based; conditions: 10^-4 molar; three donors; FIG. 4
# Protocol: as §2, §4
# as §5, with “IgG. […]” for “IgG.”
# The cells from the experiment described in Example 3 were analysed, and the cytoplasm was analysed for the presence of HIV p24 to directly test whether HIV p24 antigen production was inhibited within those infected cells. […]
# VB T lymphoma cell line = experiment: Nonspecific toxicity to VB cell line; type: cell-based, human; conditions: 10^-4 molar
# Protocol: as §1, §6
# HIV = experiment: Oral dehydroepiandrosterone sulphate in AIDS patients, T4 cell count; type: in vivo, human patients; conditions: patients X and Y, 300 mg once per day then 100 mg, day 5 to day 17
# Protocol: Dehydroepiandrosterone sulphate was measured into unit doses of 300 mg and 100 mg and each unit dose enclosed in a soft gelatin capsule.
# (A) A patient sero positive for HIV and diagnosed as suffering from AIDS was treated as follows. For twelve consecutive days, the patient was treated by administering the encapsulated compound orally to the patient. For the first eleven days, a unit dose of 300 mg was administered, once per day. On the twelfth day, the patient was given a single unit dose of 100 mg of the compound.
# Blood samples were taken from the patients on five occasions over the twenty-six day period. The first tests were carried out on each patient on day 1 and included measurements of T1, T4 and T8 cell counts, as well as, sedimentation rate. The treatment commenced on day 5, and continued to day 17. From day 5 to day 16, each patient, as already discussed, received a single unit dose of 300 mg of dehydroepiandrosterone sulphate orally and on day 17 100 mg was administered. The aforementioned tests were repeated on each patient on day 9, day 17, day 24 and day 26.
structure (smiles),measurement,setting,value
"C[C@]12CC[C@H](O)C[C@@H]1CC[C@@H]1[C@@H]2CC[C@]2(C)C(=O)[C@H](Br)C[C@@H]12 [B, 16α-bromoepiandrosterone]",killing of HXB cells,HXB cell line,killing
same,p24 antigen production,[1]; 10^-4 molar,moderately inhibited
same,p24 antigen production,[1]; 10^-5 molar,slightly less inhibited
same,"antiviral effects in comparison with AZT, lymphocytes",[1]; acute infection,inferior
same,antiviral effect in acute infection studies of lymphocytes,"[1]; acute infection, conclusions",mild antiviral effect
same,inhibition of HIV production of cytopathic effects in chronically infected lymphoma cell line,HIV in HXB/H9 cell line,no specific inhibition
same,inhibition compared with inhibition of acute infection of macrophages,"[2]; 10^-4 and 10^-5 molar, FIG. 5 vs FIG. 4",somewhat less than the inhibition of acute infection of macrophages
same,inhibition of cytoplasmic HIV p24 antigen production in chronically infected macrophages,"[2]; both 10^-4 and 10^-5 molar, three experiments, FIG. 5",some inhibition
same,toxicity with the PBL cultures,[3]; 10^-4 and 10^-5 molar,No appreciable toxicity
same,"extreme toxicity seen in VB cells, in normal peripheral blood lymphocytes",[3]; 10^-4 molar,not shared by either the normal peripheral blood lymphocytes or macrophages
same,toxicity to peripheral blood lymphocytes,[3]; 10^-4 to 10^-8 molar,nor was there appreciable toxicity
same,"extreme toxicity seen in VB cells, in macrophages",normal human macrophages; 10^-4 molar,not shared by either the normal peripheral blood lymphocytes or macrophages
same,toxicity in normal macrophages,normal human macrophages; 10^-4 to 10^-8 molar,not appreciable toxicity
same,"inhibition of HIV mediated multinucleated syncytial cell formation, compared with compound A","[4]; VB cells, acute infection, 48 hours, FIG. 1, average of two experiments",more active
same,"antiviral effects in comparison with AZT, T lymphoma cells",[4]; acute infection,inferior
same,antiviral effect in acute infection studies of T lymphoma cells,"[4]; acute infection, conclusions",mild antiviral effect
same,inhibition of cytopathic effect in two subsequent experiments,"[4]; compounds diluted in DMSO, possibly secondary to drug stability problems",less striking effect
same,toxicity to tumor cell lines,tumor cell lines,appreciable toxicity
same,decrease in production of HIV p24 antigens (supernatant),"HIV in human macrophages [5]; 10^-4 through 10^-8 molar, 7 days after acute infection, FIG. 3",approximately 50%
same,HIV infection and HIV expression in macrophages,"HIV in human macrophages [5]; in vitro, reproducible, six separate monocyte/macrophage donors",inhibit HIV infection and HIV expression in macrophages
same,HIV p24 cytoplasmic antigen production,HIV in human macrophages [6],substantially inhibited
same,toxicity to VB T lymphoma cell line,VB T lymphoma cell line,extremely toxic
C[C@]12CC[C@H](OS(=O)(=O)O)CC1=CC[C@@H]1[C@@H]2CC[C@]2(C)C(=O)CC[C@@H]12 [dehydroepiandrosterone sulphate],T4 cell count,HIV,stabilise
